Test results published in patent US20130253048A1, “Pharmaceutical Composition for Promoting Osteogenesis Containing Axial-equatorial Aryl-oriented Furofuran-type Lignan, and Pharmaceutical Preparation, Functional Food Product, and Health Food Product Comprising Composition” (ERINA CO., INC., priority 2010, published 2013).
Marks after values point to notes of the source that are not given here.

Assays:
TRACP5b = test: Serum TRACP5b of OVX mice (bone metabolism marker); assay type: in vivo, mouse
Protocol: All obtained blood from the heart under diethyl ether anesthesia at dissection was stored at 4 degree centigrade for 24 hours. Then, the blood was centrifuged at 3,000 rpm (4,000×g) for 15 minutes to separate the sera.
According to the protocol of Mouse TRAP™ Assay (Immuno-diagnostic Systems Ltd, the United of Kingdom), TRACP5b in the obtained sera was determined.

[1] = test system: osteopenia mouse caused by sRANKL administration; test: Osteopenia mouse caused by sRANKL administration, femur pQCT; assay type: in vivo; details: for Bone density of the cancellous bone, relative value / Bone density of the cortical bone, relative value / Bone density of whole bone, relative value: RANKL group = 100.0; for Bone density of the cancellous bone / Bone density of the cortical bone / Bone density of whole bone: day 4 to 13; for Bone density of whole bone: right femur, pQCT
Protocol: C57BL/6NCrlCrlj mice (6-week-age, female) were purchased from Oriental Yeast Co., Ltd. and kept to be acclimatized under the conditions of 12 hour light/dark cycle, 23±3 degree centigrade, and humidity 55±5% for 7 days. Two mice were in a cage, and the animal bedding was changed twice a week, and all fresh animal bedding was used at all times. As the feed, CRF-1 (Oriental Yeast Co., Ltd.), and deionized water as the drinking water were freely taken.
After the acclimatization, these mice were randomly divided into 4 groups (8 mice per group), sRANKL administration group and fargesin administration groups. Fargesin administration groups had 0.2 mg/kg/day administration group (it is referred to as “Far 0.2”, hereinbelow), 2 mg/kg/day administration group (it is referred to as “Far 2” herein below), and 20 mg/kg/day administration group (it is referred to as “Far 20” herein below). sRANKL (1 mg/kg/day, i.p) was administered to all mice on the first day and the second day from test start to cause osteopenia experimentally.
From the 4th day to 13th day after the test start, distilled water or the test compounds shown in the following Table 10 were daily administered to the mice in each group.
After the administration period was finished and the experiment was completed, the femurs were removed in the same way as employed in Example 6 to be excised to evaluate the bone density. Body weight of the test animals and feed intake by the test animals were measured twice a week during the administration period.
The experiments were performed as the same as done in Example 6, right femur chosen from the obtained femurs was used for measurement of the bone density.
The whole bone density, the cancellous bone density, the cortical bone density, the boundary length of the cortical bone adventitia, the length of the cortical bone endosteum, and the bone strength were measured at the site of −0.6 mm from the growth plate of the bone (see FIG. 3A).

[2] = sRANKL-treated mice, Far 0.2: 0.2 mg/kg/day p.o.
[3] = sRANKL-treated mice, Far 2: 2 mg/kg/day p.o.
[4] = sRANKL-treated mice, Far 20: 20 mg/kg/day p.o.

COc1ccc([C@@H]2OC[C@H]3[C@@H]2CO[C@@H]3c2ccc3c(c2)OCO3)cc1OC [fargesin, Fargesin]
level of TRACP5b in the sera (TRACP5b; 40 mg administration group p.o.): significantly decreased | level of TRACP5b in the sera (TRACP5b; 2, 20, 40 mg/kg/day p.o.): dose-dependently decreased | Bone density of the cancellous bone, relative value ([1]; Far 0.2: 0.2 mg/kg/day p.o.): (100.7) | Bone density of the cortical bone, relative value ([1]; Far 0.2: 0.2 mg/kg/day p.o.): (98.7) | Bone density of whole bone, relative value ([1]; Far 0.2: 0.2 mg/kg/day p.o.): 99.5 | Bone density of the cancellous bone, relative value ([1]; Far 2: 2 mg/kg/day p.o.): (104.0) | Bone density of the cortical bone, relative value ([1]; Far 2: 2 mg/kg/day p.o.): (98.9) | Bone density of whole bone, relative value ([1]; Far 2: 2 mg/kg/day p.o.): 99.5 | Bone density of the cancellous bone, relative value ([1]; Far 20: 20 mg/kg/day p.o.): (129.4)* | Bone density of the cortical bone, relative value ([1]; Far 20: 20 mg/kg/day p.o.): (98.6) | Bone density of whole bone, relative value ([1]; Far 20: 20 mg/kg/day p.o.): 110 | bone strength, Polar coordinates strength (SSI) ([1]; sRANKL-treated mice, 0.2 to 20 mg/kg/day p.o.): trend that the bone strength was improved | Bone density of the cancellous bone [1, 2]: 261.64 ± 17.92 mg/mL | Bone density of the cortical bone [1, 2]: 797.40 ± 6.12 mg/mL | Bone density of whole bone [1, 2]: 484.33 ± 11.09 mg/mL | Bone density of the cancellous bone [1, 3]: 270.30 ± 20.64 mg/mL | Bone density of the cortical bone [1, 3]: 798.60 ± 4.56 mg/mL | Bone density of whole bone [1, 3]: 487.30 ± 16.36 mg/mL | Bone density of the cancellous bone [1, 4]: 336.25 ± 13.50 mg/mL | Bone density of the cortical bone [1, 4]: 796.33 ± 3.89 mg/mL | Bone density of whole bone [1, 4]: 532.69 ± 8.06 mg/mL
